From patent publication US20250092056A1, “URACIL DERIVATIVES HAVING VIRUS REPLICATION INHIBITORY ACTIVITY AND PHARMACEUTICAL COMPOSITION COMPRISING THE SAME” (Shionogi & Co., Ltd., priority 2022, published 2025)

The compounds below were run against Recombinant SARS-CoV-2 3CL Protease (Severe acute respiratory syndrome coronavirus 2 (2019-nCoV) (SARS-CoV-2), UniProt P0DTD1) (assay: biochemical). Conditions: 50% SARS-CoV-2 3CL protease inhibitory concentration; read-out: IC50.
Type: biochemical
Work on Cc1cncc(-n2c(=O)c(-c3ccc(F)c(Cl)c3)c(-c3ccc(F)cc3)n(CC#N)c2=O)c1 [Compound I-272] yielded an IC50 of under 10 nM. With CC1(O)CN(c2c(-c3ccc(F)c(Cl)c3)c(=O)n(-c3cncc(OC(F)F)n3)c(=O)n2CC#N)C1 [Compound I-354] the IC50 was under 10 nM. Work on N#CCn1c(N2CC(O)(c3ncccn3)C2)c(-c2ccc(F)c(Cl)c2)c(=O)n(-c2cncc(OCF)n2)c1=O [Compound I-377] yielded an IC50 of under 10 nM. With Cc1cncc(-n2c(=O)c(Cc3cc(F)c(F)c(F)c3)c(-c3ccc(C)c(C)c3)n(C3(C#N)CC3)c2=O)c1 [Compound I-049] the IC50 was 10 to 100 nM. With N#CCn1c(N2CC3(C2)CC(F)(F)C3)c(-c2ccc(F)c(Cl)c2)c(=O)n(-c2cncc(I)c2)c1=O [Compound I-363] the IC50 was under 10 nM. Work on N#CCn1c(N2CC3(CCOCC3)C2)c(-c2ccc(F)c(Cl)c2)c(=O)n(-c2cncc(Cl)c2)c1=O [Compound I-292] yielded an IC50 of under 10 nM. Cc1cncc(-n2c(=O)c(-c3ccc(F)c(Cl)c3)c(N3CCC4(CCNC4=O)CC3)n(CC#N)c2=O)c1 [Compound I-044] showed an IC50 of under 10 nM. Work on N#CCn1c(N2CC[C@@](O)(c3ccccc3)C2)c(-c2ccc(F)c(Cl)c2)c(=O)n(-c2cncc(Cl)c2)c1=O (single isomer, unassigned) [Compound I-240] yielded an IC50 of under 10 nM. With N#CCn1c(-c2ccc(C(F)F)nc2)c(-c2ccc(F)c(Cl)c2)c(=O)n(-c2cncc(Cl)c2)c1=O [Compound I-387] the IC50 was under 10 nM. Compound N#CCn1c(N2CC3(CCOC3)C2)c(-c2ccc(F)c(Cl)c2)c(=O)n(-c2cncc(Cl)c2)c1=O [Compound I-181] has an IC50 of under 10 nM. N#CCn1c(-c2ccc(C#N)nc2)c(-c2ccc(F)c(Cl)c2)c(=O)n(-c2cncc(Cl)c2)c1=O [Compound I-384] gave an IC50 of under 10 nM. Work on N#CCn1c(N2CC3(C2)CC(F)(F)C3)c(-c2ccc(F)c(Cl)c2)c(=O)n(-c2cc(Cl)cnn2)c1=O [Compound I-214] yielded an IC50 of under 10 nM. For N#CCn1c(N2CCC(F)(F)CC2)c(-c2cc(F)c(F)c(Cl)c2)c(=O)n(-c2cncc(Cl)c2)c1=O [Compound I-327], the IC50 was under 10 nM. With N#CCn1c(N2CC3CNC(=O)C3C2)c(-c2ccc(F)c(Cl)c2)c(=O)n(-c2cncc(Cl)c2)c1=O (racemic) [Compound I-062] the IC50 was under 10 nM. Compound Cc1cncc(-n2c(=O)c(-c3ccc(F)c(Cl)c3)c(N3CC4(CCCO4)C3)n(CC#N)c2=O)n1 [Compound I-195] has an IC50 of under 10 nM. Cc1cncc(-n2c(=O)c(Cc3cc(F)c(F)c(F)c3)c(CCCO)n(CC#N)c2=O)c1 [Compound I-052] showed an IC50 of 10 to 100 nM. N#CCn1c(N2Cc3ccccc3C2)c(Cc2cc(F)c(F)c(F)c2)c(=O)n(-c2cnc3ccccn23)c1=O [Compound I-040] was tested, and the IC50 was under 10 nM. N#CCn1c(N2CC(O)(c3ncccn3)C2)c(-c2ccc(F)c(Cl)c2)c(=O)n(-c2cncc(OCF)c2)c1=O [Compound I-346] was tested, and the IC50 was under 10 nM. N#CCn1c(N2CC(O)(c3ncc(F)cn3)C2)c(-c2ccc(F)c(Cl)c2)c(=O)n(-c2cncc(Cl)c2)c1=O [Compound I-234] was tested, and the IC50 was 1.2 nM. In the case of N#CCn1c(N2CC[C@H](C(=O)N3CC(F)(F)C3)C2)c(-c2ccc(F)c(Cl)c2)c(=O)n(-c2cncc(Cl)c2)c1=O [Compound I-235], the IC50 is reported as under 10 nM. For Cc1cncc(-n2c(=O)c(-c3ccc(F)c(Cl)c3)c(N3CC(C)(C)C3)n(CC#N)c2=O)n1 [Compound I-196], the IC50 was under 10 nM. In the case of COc1ccc(-c2c(-c3ccc(F)c(Cl)c3)c(=O)n(-c3cncc(C)c3)c(=O)n2CC#N)cc1 [Compound I-271], the IC50 is reported as under 10 nM. Cc1cc(-n2c(=O)c(-c3ccc(F)c(Cl)c3)c(N3C[C@H]4CCCC[C@H]4C3)n(CC#N)c2=O)cc(=O)[nH]1 [Compound I-172] gave an IC50 of under 10 nM. For N#CCn1c(N2CC3(CCOC3)C2)c(C2=CCCCCC2)c(=O)n(-c2cncc(Cl)c2)c1=O [Compound I-227], the IC50 was under 10 nM. Cc1cncc(-n2c(=O)c(-c3ccc(F)c(Cl)c3)c(N3C[C@H]4C[C@@H]3CO4)n(CC#N)c2=O)c1 [Compound I-226] was tested, and the IC50 was under 10 nM.

What follows are compounds tested on SARS-CoV-2 (assay: Cytopathic effect (CPE) suppression effect confirmation test using HEK293T/ACE2-TMPRSS2 cells). Conditions: Severe acute respiratory syndrome coronavirus 2, HEK-293T, 72 h, read-out: EC50 (50% SARS-CoV-2 infected cell death inhibitory concentration), HEK293T/ACE2-TMPRSS2 cells, CPE suppression, CellTiter-Glo 2.0 after 3 days culture.
Type: cell-based
Compound N#CCn1c(N2CC(O)(c3ncc(F)cn3)C2)c(-c2ccc(F)c(Cl)c2)c(=O)n(-c2cncc(Cl)c2)c1=O [Compound I-234] has an EC50 of 6.6 nM.

Same assay, conditions: Severe acute respiratory syndrome coronavirus 2, HEK-293T, 72 h, read-out: EC50 (50% SARS-CoV-2 infected cell death inhibitory concentration), class, HEK293T/ACE2-TMPRSS2 cells, CPE suppression, CellTiter-Glo 2.0 after 3 days culture
Work on Cc1cncc(-n2c(=O)c(-c3ccc(F)c(Cl)c3)c(N3CCC4(CCNC4=O)CC3)n(CC#N)c2=O)c1 [Compound I-044] yielded an EC50 of 100 to 1000 nM. N#CCn1c(N2CC3(CCOC3)C2)c(-c2ccc(F)c(Cl)c2)c(=O)n(-c2cncc(Cl)c2)c1=O [Compound I-181] gave an EC50 of under 100 nM. For N#CCn1c(N2CC3CNC(=O)C3C2)c(-c2ccc(F)c(Cl)c2)c(=O)n(-c2cncc(Cl)c2)c1=O (racemic) [Compound I-062], the EC50 was under 100 nM. Compound Cc1cncc(-n2c(=O)c(-c3ccc(F)c(Cl)c3)c(N3CC4(CCCO4)C3)n(CC#N)c2=O)n1 [Compound I-195] has an EC50 of under 100 nM. With N#CCn1c(N2Cc3ccccc3C2)c(Cc2cc(F)c(F)c(F)c2)c(=O)n(-c2cnc3ccccn23)c1=O [Compound I-040] the EC50 was under 100 nM. For Cc1cncc(-n2c(=O)c(-c3ccc(F)c(Cl)c3)c(N3CC(C)(C)C3)n(CC#N)c2=O)n1 [Compound I-196], the EC50 was under 100 nM. For Cc1cc(-n2c(=O)c(-c3ccc(F)c(Cl)c3)c(N3C[C@H]4CCCC[C@H]4C3)n(CC#N)c2=O)cc(=O)[nH]1 [Compound I-172], the EC50 was under 100 nM.

Same assay, conditions: Severe acute respiratory syndrome coronavirus 2, HEK-293T, 72 h; HEK293T/ACE2-TMPRSS2 cells, CPE suppression, CellTiter-Glo 2.0 after 3 days culture; read-out: EC50 (50% SARS-CoV-2 infected cell death inhibitory concentration), class
For Cc1cncc(-n2c(=O)c(Cc3cc(F)c(F)c(F)c3)c(-c3ccc(C)c(C)c3)n(C3(C#N)CC3)c2=O)c1 [Compound I-049], the EC50 was 100 to 1000 nM. Cc1cncc(-n2c(=O)c(Cc3cc(F)c(F)c(F)c3)c(CCCO)n(CC#N)c2=O)c1 [Compound I-052] gave an EC50 of under 100 nM.

Same assay, conditions: Severe acute respiratory syndrome coronavirus 2, HEK-293T; 50% SARS-CoV-2 infected cell death inhibitory concentration; HEK293T/ACE2-TMPRSS2 cells; read-out: EC50
In the case of Cc1cncc(-n2c(=O)c(-c3ccc(F)c(Cl)c3)c(-c3ccc(F)cc3)n(CC#N)c2=O)c1 [Compound I-272], the EC50 is reported as under 100 nM. CC1(O)CN(c2c(-c3ccc(F)c(Cl)c3)c(=O)n(-c3cncc(OC(F)F)n3)c(=O)n2CC#N)C1 [Compound I-354] was tested, and the EC50 was under 100 nM. In the case of N#CCn1c(N2CC(O)(c3ncccn3)C2)c(-c2ccc(F)c(Cl)c2)c(=O)n(-c2cncc(OCF)n2)c1=O [Compound I-377], the EC50 is reported as under 100 nM. N#CCn1c(N2CC3(C2)CC(F)(F)C3)c(-c2ccc(F)c(Cl)c2)c(=O)n(-c2cncc(I)c2)c1=O [Compound I-363] was tested, and the EC50 was under 100 nM. N#CCn1c(N2CC3(CCOCC3)C2)c(-c2ccc(F)c(Cl)c2)c(=O)n(-c2cncc(Cl)c2)c1=O [Compound I-292] showed an EC50 of under 100 nM. Work on N#CCn1c(N2CC[C@@](O)(c3ccccc3)C2)c(-c2ccc(F)c(Cl)c2)c(=O)n(-c2cncc(Cl)c2)c1=O (single isomer, unassigned) [Compound I-240] yielded an EC50 of under 100 nM. With N#CCn1c(-c2ccc(C(F)F)nc2)c(-c2ccc(F)c(Cl)c2)c(=O)n(-c2cncc(Cl)c2)c1=O [Compound I-387] the EC50 was under 100 nM. In the case of N#CCn1c(-c2ccc(C#N)nc2)c(-c2ccc(F)c(Cl)c2)c(=O)n(-c2cncc(Cl)c2)c1=O [Compound I-384], the EC50 is reported as under 100 nM. Compound N#CCn1c(N2CC3(C2)CC(F)(F)C3)c(-c2ccc(F)c(Cl)c2)c(=O)n(-c2cc(Cl)cnn2)c1=O [Compound I-214] has an EC50 of under 100 nM. Work on N#CCn1c(N2CCC(F)(F)CC2)c(-c2cc(F)c(F)c(Cl)c2)c(=O)n(-c2cncc(Cl)c2)c1=O [Compound I-327] yielded an EC50 of under 100 nM. N#CCn1c(N2CC(O)(c3ncccn3)C2)c(-c2ccc(F)c(Cl)c2)c(=O)n(-c2cncc(OCF)c2)c1=O [Compound I-346] showed an EC50 of under 100 nM. N#CCn1c(N2CC[C@H](C(=O)N3CC(F)(F)C3)C2)c(-c2ccc(F)c(Cl)c2)c(=O)n(-c2cncc(Cl)c2)c1=O [Compound I-235] showed an EC50 of under 100 nM. Work on COc1ccc(-c2c(-c3ccc(F)c(Cl)c3)c(=O)n(-c3cncc(C)c3)c(=O)n2CC#N)cc1 [Compound I-271] yielded an EC50 of under 100 nM. N#CCn1c(N2CC3(CCOC3)C2)c(C2=CCCCCC2)c(=O)n(-c2cncc(Cl)c2)c1=O [Compound I-227] gave an EC50 of under 100 nM. With Cc1cncc(-n2c(=O)c(-c3ccc(F)c(Cl)c3)c(N3C[C@H]4C[C@@H]3CO4)n(CC#N)c2=O)c1 [Compound I-226] the EC50 was under 100 nM.
